# Results from patent publication US9006209B2, “Uracyl spirooxetane nucleoside phosphoramidates” (Janssen Products, LP, priority 2010, dated 2015).
# What was measured:
# HIV = conditions: described in Org. Biomol. Chem., 2003, 3514-3526; cited from earlier work
# [1] = Cytotoxicity in Huh-7 cells; assay type: cell-based; conditions: human
# Procedure: (§1) The in vitro antiviral activity against HCV of the compound of formula I was tested in a cellular HCV replicon system based on Lohmann et al. (1999) Science 285:110-113, with the further modifications described by Krieger et al. (2001) Journal of Virology 75: 4614-4624 (incorporated herein by reference), which is further exemplified in the examples section. This model, while not a complete infection model for HCV, is widely accepted as the most robust and efficient model of autonomous HCV RNA replication currently available. It will be appreciated that it is important to distinguish between compounds that specifically interfere with HCV functions from those that exert cytotoxic or cytostatic effects in the HCV replicon model, and as a consequence cause a decrease in HCV RNA or linked reporter enzyme concentration. Assays are known in the field for the evaluation of cellular cytotoxicity based for example on the activity of mitochondrial enzymes using fluorogenic redox dyes such as resazurin. Furthermore, cellular counter screens exist for the evaluation of non-selective inhibition of linked reporter gene activity, such as firefly luciferase. […]
# [2] = test system: HCV replicon (HCV type 1b NS3-NS5B) in Huh-7 luc/neo cells; test: HCV replicon assay (Huh-Luc, luciferase readout); assay type: cell-based, HCV genotype 1b; conditions: Hepatitis C virus, Huh-7, 72 h, three days incubation, luciferase activity
# Procedure: as §1, with “concentration.” for “concentration. Assays are known in the field for the evaluation of cellular cytotoxicity based for example on the activity of mitochondrial enzymes using fluorogenic redox dyes such as resazurin. Furthermore, cellular counter screens exist for the evaluation of non-selective inhibition of linked reporter gene activity, such as firefly luciferase.”
# The replicon cells were plated in 384-well plates in the presence of the test and control compounds which were added in various concentrations. Following an incubation of three days, HCV replication was measured by assaying luciferase activity (using standard luciferase assay substrates and reagents and a Perkin Elmer ViewLux™ ultraHTS microplate imager). […] The inhibitory activity of the compound on luciferase activity was monitored on the Huh-Luc cells, enabling a dose-response curve for the test compound. […]
compound,measurement,setting,value
"Cc1cn([C@@H]2O[C@H](CO)[C@@H](O)[C@]23CCO3)c(=O)[nH]c1=O [1-(2-O,2-C-ethano-β-D-ribofuranosyl)thymine]",activity against HIV,HIV,no activity was found
"O=c1ccn([C@@H]2O[C@H](CO)[C@@H](O)[C@]23CCO3)c(=O)[nH]1 [1-(2-O,2-C-ethano-β-D-ribofuranosyl)uracil]",activity against HIV,HIV,no activity was found
"CCCCOC(=O)[C@H](C)N[P@@](=O)(OC[C@H]1O[C@@H](n2ccc(=O)[nH]c2=O)[C@@]2(CCO2)[C@@H]1O)Oc1ccccc1 [P1, butyl N-[(R)-{[(4R,5R,7R,8R)-5-(2,4-dioxo-3,4-dihydro-pyrimidin-1(2H)-yl)-8-hydroxy-1,6-dioxaspiro[3.4]oct-7-yl]methoxy}(phenoxy)-phosphoryl]-L-alaninate]",CC50,[1],> 98 µM
same,EC50,[2],4.47 µM
